Patent US20070281988A1, “Combination Therapy for Vascular Complications Associated with Hyperglycemia” (priority 2004, published 2007)

What was measured:
Assay type in all cases: in vivo, rat
[1] = system: sciatic nerve endoneurium; test: Sciatic endoneurial blood flow by microelectrode polarography and hydrogen clearance in streptozotocin-diabetic rats; details: STZ-diabetic rats, ruboxistaurin 0.25 mg/kg, lovastatin 5.5 mg/kg, mean ± SEM; for Blood Flow (sciatic endoneurial nutritive): 2-week treatment after 6 weeks untreated diabetes; for Vascular Conductance: blood flow divided by mean arterial blood pressure, 2-week treatment
Description: (§1) Diabetes is induced in mature (19 week old) male Sprague-Dawley by streptozotocin injection (40-45 mg/kg i.p.). The diabetic state is monitored weekly using commercially available test strips for blood (tail vein) and urine glucose levels. Body weight is also be monitored daily. The criteria for the diabetic state are; blood glucose>19.9 mM, glycosuria, and no evidence of body weight gain. After 6 weeks of untreated diabetes, drugs are administered for a 2-week period.
Sciatic endoneurial blood flow is estimated in the limb contralateral to that for conduction velocity measurements by microelectrode polarography and hydrogen clearance. Day T J, Lagerlund T D, Low P A (1989), “Analysis of H2 clearance curves used to measure blood flow in rat sciatic nerve,” J Physiol 414:35-54; Cameron N E, Cotter M A, Low P A (1991), “Nerve blood flow in early experimental diabetes in rats: relation to conduction deficits.” Am J Physiol 261:E1-E8; Cameron N E, Cotter M A, Hohman T C (1996), “Interactions between essential fatty acid, prostanoid, polyol pathway and nitric oxide mechanisms in the neurovascular deficit of diabetic rats,” Diabetologia 39:172-182. Rats are artificially ventilated. The carotid artery is cannulated to monitor blood pressure. The level of anaesthesia is monitored by observing any reaction of blood pressure to manipulation, and supplementary thiobutabarbital anaesthetic is given as necessary. The sciatic nerve is exposed and the skin around the incision sutured to a metal ring to form a pool filled with mineral oil at 37° C. During recordings, pool temperature is maintained at 35-37° C. by radiant heat. A glass-insulated platinum microelectrode, polarized at 250 mV with respect to a subcutaneous reference electrode, is inserted into the sciatic nerve endoneurium between the sciatic notch and the nerve trifurcation above the knee. 10% H2 would be added to the inspired gas, the proportions of O2 and N2 being adjusted to 20% and 70% respectively. When the H2 current recorded by the electrode has stabilized, indicating equilibrium with arterial blood, the H2 supply is shut off and N2 delivery increased appropriately. H2 clearance is recorded until a stable baseline is reached, which is defined as no systematic decline in electrode current over 5 min. This procedure is then repeated at another nerve site. […] Assuming a tissue density of 1, nutritive blood flow would be calculated as d×100 (ml min^−1 100 g^−1). Vascular conductance is calculated by dividing blood flow by the mean arterial blood pressure over the recording period for that particular clearance curve. […]

[2] = system: sensory saphenous nerve; test: Sensory nerve conduction velocity (saphenous nerve) in streptozotocin-diabetic rats; details: STZ-diabetic rats, lovastatin 5.5 mg/kg; for SNCV (sensory nerve conduction velocity): 2-week treatment after 6 weeks untreated diabetes, ruboxistaurin 0.25 mg/kg, mean ± SEM; for correction of diabetic deficit in sensory conduction velocity: individual doses: ruboxistaurin 0.25 mg/kg
Description: as §1
(§2) In final experiments, rats are anaesthetized with thiobutabarbital (50-100 mg kg^−1 i.p.). The trachea is cannulated for artificial respiration. As described in Cameron N E, Cotter M A, Robertson S (1989), “The effect of aldose reductase inhibition on the pattern of nerve conduction deficits in diabetic rats.” Q. J. Exp. Physiol. 74:917-926; and Cameron N E, Cotter M A, Robertson S (1991), “Effects of essential fatty acid supplementation on peripheral nerve and skeletal muscle function and capillarization in streptozotocin diabetic rats.” Diabetes 40:532-539, the sciatic nerve is exposed between the sciatic notch and knee. Bipolar stimulating electrodes are placed close to the nerve at the notch and knee. A concentric bipolar electrode is inserted into tibialis anterior muscle to monitor evoked electromyographic (EMG) activity. Potentials from each stimulating site are averaged 8 times. Motor conduction velocity is calculated by dividing the distance between stimulating electrodes by the average latency difference between the onset of EMG potentials evoked from the 2 sites. Nerve temperature is monitored using a thermocouple probe, and maintained in the range 36-38° C. by radiant heat. Body temperature is also maintained around 37° C. using a heated blanket. Sensory conduction velocity is measured for sensory saphenous nerve between groin and mid calf in a similar fashion, except that direct nerve evoked potentials are recorded at the ankle using a unipolar platinum hook electrode.

[3] = system: sciatic nerve; test: Motor nerve conduction velocity (sciatic nerve) in streptozotocin-diabetic rats; details: STZ-diabetic rats, lovastatin 5.5 mg/kg; for MNCV (motor nerve conduction velocity): 2-week treatment after 6 weeks untreated diabetes, ruboxistaurin 0.25 mg/kg, mean ± SEM; for correction of diabetic deficit in motor conduction velocity: individual doses: ruboxistaurin 0.25 mg/kg
Description: as §1, §2

SMILES	Blood Flow (sciatic endoneurial nutritive) [1] [ml/min/100 g]	Vascular Conductance [1] [ml/min/100 g/mm Hg]	SNCV (sensory nerve conduction velocity) [2] [m/s]	correction of diabetic deficit in sensory conduction velocity [2] [%]	MNCV (motor nerve conduction velocity) [3] [m/s]	correction of diabetic deficit in motor conduction velocity [3] [%]
CC[C@H](C)C(=O)O[C@H]1C[C@@H](C)C=C2C=C[C@H](C)[C@H](CC[C@@H]3C[C@@H](O)CC(=O)O3)[C@H]21 [LOV, lovastatin]	10.4 ± 0.6	0.091 ± 0.006	54.6 ± 0.4	~20	54.0 ± 0.4	~20
CN(C)C[C@@H]1CCn2cc(c3ccccc32)C2=C(C(=O)NC2=O)c2cn(c3ccccc23)CCO1 [LY, (S)-9-((Dimethylamino)methyl)-6,7,10,11-tetrahydro-9H,18H-5,21:12,17-dimethenodibenzo(e,k)pyrrolo(3,4-h)(1,4,13)oxadiaza-cyclohexadecine-18,20(19H)-dione]	10.7 ± 0.4	0.101 ± 0.008	54.8 ± 0.3	~20	53.5 ± 0.3	~20
